Tested on: P. falciparum 3D7 strain
Assay: Antiplasmodial DNA stain-based growth assay
Type: cell-based
Details: Plasmodium falciparum, 3D7; chloroquine-sensitive strain; 72 h incubation; read-out: P. falciparum 3D7 EC50
Description: (§1) Assays were performed by using previously described DNA stain-based assay and methods, including cytotoxicity assays.

EC50 [µM]	SMILES
> 15	COC(=O)[C@@]1(C)CCC[C@]2(C)c3cc(OC(C)=O)c(C(C)C)cc3CC[C@@H]12 [Compound 10]
7.1	COC(=O)[C@@]1(C)CCC[C@]2(C)c3cc(OC(C)=O)c(C(C)C)cc3C(=O)C[C@@H]12 [Compound 11]

SMILES	EC50 [µM]
COC(=O)[C@@]1(C)CCC[C@]2(C)c3cc(O)c(C(C)C)cc3CC[C@@H]12 [Compound 12]	4.7

Tested on: P. falciparum K1 strain
Assay: Antiplasmodial DNA stain-based growth assay
Type: cell-based
Details: Plasmodium falciparum, K1; chloroquine-resistant strain; 72 h incubation; read-out: P. falciparum K1 EC50
Description: as §1

EC50 [µM]	SMILES
3.1	COC(=O)[C@@]1(C)CCC[C@]2(C)c3cc(OC(C)=O)c(C(C)C)cc3CC[C@@H]12 [Compound 10]
5.7	COC(=O)[C@@]1(C)CCC[C@]2(C)c3cc(OC(C)=O)c(C(C)C)cc3C(=O)C[C@@H]12 [Compound 11]

SMILES	EC50 [µM]
COC(=O)[C@@]1(C)CCC[C@]2(C)c3cc(O)c(C(C)C)cc3CC[C@@H]12 [Compound 12]	2.1

Tested on: BJ
Assay: Cytotoxicity on mammalian cell lines
Type: cell-based
Details: Homo sapiens, read-out: BJ EC50
Description: as §1

SMILES	EC50 [µM]
COC(=O)[C@@]1(C)CCC[C@]2(C)c3cc(OC(C)=O)c(C(C)C)cc3CC[C@@H]12 [Compound 10]	> 25
COC(=O)[C@@]1(C)CCC[C@]2(C)c3cc(OC(C)=O)c(C(C)C)cc3C(=O)C[C@@H]12 [Compound 11]	> 25
COC(=O)[C@@]1(C)CCC[C@]2(C)c3cc(O)c(C(C)C)cc3CC[C@@H]12 [Compound 12]	> 25

Tested on: HEK293
Assay: Cytotoxicity on mammalian cell lines
Type: cell-based
Details: Homo sapiens, HEK293; read-out: HEK293 EC50
Description: as §1

SMILES	EC50 [µM]
COC(=O)[C@@]1(C)CCC[C@]2(C)c3cc(OC(C)=O)c(C(C)C)cc3CC[C@@H]12 [Compound 10]	> 25
COC(=O)[C@@]1(C)CCC[C@]2(C)c3cc(OC(C)=O)c(C(C)C)cc3C(=O)C[C@@H]12 [Compound 11]	> 25
COC(=O)[C@@]1(C)CCC[C@]2(C)c3cc(O)c(C(C)C)cc3CC[C@@H]12 [Compound 12]	> 25

Tested on: HepG2
Assay: Cytotoxicity on mammalian cell lines
Type: cell-based
Details: Homo sapiens, HepG2; read-out: HepG2 EC50
Description: as §1

SMILES	EC50 [µM]
COC(=O)[C@@]1(C)CCC[C@]2(C)c3cc(OC(C)=O)c(C(C)C)cc3CC[C@@H]12 [Compound 10]	> 25
COC(=O)[C@@]1(C)CCC[C@]2(C)c3cc(OC(C)=O)c(C(C)C)cc3C(=O)C[C@@H]12 [Compound 11]	> 25
COC(=O)[C@@]1(C)CCC[C@]2(C)c3cc(O)c(C(C)C)cc3CC[C@@H]12 [Compound 12]	> 25

Tested on: RAJI
Assay: Cytotoxicity on mammalian cell lines
Type: cell-based
Details: Homo sapiens, read-out: RAJI EC50
Description: as §1

SMILES	EC50 [µM]
COC(=O)[C@@]1(C)CCC[C@]2(C)c3cc(OC(C)=O)c(C(C)C)cc3CC[C@@H]12 [Compound 10]	> 25
COC(=O)[C@@]1(C)CCC[C@]2(C)c3cc(OC(C)=O)c(C(C)C)cc3C(=O)C[C@@H]12 [Compound 11]	> 25
COC(=O)[C@@]1(C)CCC[C@]2(C)c3cc(O)c(C(C)C)cc3CC[C@@H]12 [Compound 12]	> 25

Tested on: A549 (Lung)
Assay: Antiproliferative SRB assay
Type: cell-based, human
Details: Homo sapiens, A549, mean ± SD of at least two experiments
Description: (§2) Cells, cultures and the activity test of abietane analogs followed reported methods. The SRB assay was performed as previously described, and the antiproliferative activity was given as GI50 values, which were calculated according to NCI formulas.

GI50 [µM]	SMILES
6.5 ± 2.7	COC(=O)[C@@]1(C)CCC[C@]2(C)c3cc(OC(C)=O)c(C(C)C)cc3CC[C@@H]12 [Compound 10]
3.1 ± 0.9	COC(=O)[C@@]1(C)CCC[C@]2(C)c3cc(OC(C)=O)c(C(C)C)cc3C(=O)C[C@@H]12 [Compound 11]

SMILES	GI50 [µM]
COC(=O)[C@@]1(C)CCC[C@]2(C)c3cc(O)c(C(C)C)cc3CC[C@@H]12 [Compound 12]	2.3 ± 1.5

Tested on: SW1573 (Lung)
Assay: Antiproliferative SRB assay
Type: cell-based, human
Details: Homo sapiens, SW1573, mean ± SD of at least two experiments
Description: as §2

GI50 [µM]	SMILES
18 ± 3.4	COC(=O)[C@@]1(C)CCC[C@]2(C)c3cc(OC(C)=O)c(C(C)C)cc3CC[C@@H]12 [Compound 10]
17 ± 7.5	COC(=O)[C@@]1(C)CCC[C@]2(C)c3cc(OC(C)=O)c(C(C)C)cc3C(=O)C[C@@H]12 [Compound 11]

SMILES	GI50 [µM]
COC(=O)[C@@]1(C)CCC[C@]2(C)c3cc(O)c(C(C)C)cc3CC[C@@H]12 [Compound 12]	12 ± 4.1

Tested on: WiDr (Colon)
Assay: Antiproliferative SRB assay
Type: cell-based, human
Details: Homo sapiens, WiDr, mean ± SD of at least two experiments
Description: as §2

SMILES	GI50 [µM]
COC(=O)[C@@]1(C)CCC[C@]2(C)c3cc(OC(C)=O)c(C(C)C)cc3CC[C@@H]12 [Compound 10]	4.5 ± 1.4
COC(=O)[C@@]1(C)CCC[C@]2(C)c3cc(OC(C)=O)c(C(C)C)cc3C(=O)C[C@@H]12 [Compound 11]	5.2 ± 3.1
COC(=O)[C@@]1(C)CCC[C@]2(C)c3cc(O)c(C(C)C)cc3CC[C@@H]12 [Compound 12]	3.7 ± 1.9

Tested on: HBL-100 (Breast)
Assay: Antiproliferative SRB assay
Type: cell-based
Details: Homo sapiens, mean ± SD of at least two experiments
Description: as §2

SMILES	GI50 [µM]
COC(=O)[C@@]1(C)CCC[C@]2(C)c3cc(OC(C)=O)c(C(C)C)cc3CC[C@@H]12 [Compound 10]	11 ± 2.3
COC(=O)[C@@]1(C)CCC[C@]2(C)c3cc(OC(C)=O)c(C(C)C)cc3C(=O)C[C@@H]12 [Compound 11]	7.4 ± 0.7
COC(=O)[C@@]1(C)CCC[C@]2(C)c3cc(O)c(C(C)C)cc3CC[C@@H]12 [Compound 12]	11 ± 3

Tested on: HeLa (Cervix)
Assay: Antiproliferative SRB assay
Type: cell-based
Details: Homo sapiens, mean ± SD of at least two experiments
Description: as §2

GI50 [µM]	SMILES
7 ± 1.7	COC(=O)[C@@]1(C)CCC[C@]2(C)c3cc(OC(C)=O)c(C(C)C)cc3CC[C@@H]12 [Compound 10]
5.6 ± 2.9	COC(=O)[C@@]1(C)CCC[C@]2(C)c3cc(OC(C)=O)c(C(C)C)cc3C(=O)C[C@@H]12 [Compound 11]

SMILES	GI50 [µM]
COC(=O)[C@@]1(C)CCC[C@]2(C)c3cc(O)c(C(C)C)cc3CC[C@@H]12 [Compound 12]	5.1 ± 1.9

Tested on: T-47D (Breast)
Assay: Antiproliferative SRB assay
Type: cell-based
Details: Homo sapiens, T47D, mean ± SD of at least two experiments
Description: as §2

GI50 [µM]	SMILES
4.2 ± 1.5	COC(=O)[C@@]1(C)CCC[C@]2(C)c3cc(OC(C)=O)c(C(C)C)cc3CC[C@@H]12 [Compound 10]
6.1 ± 1.9	COC(=O)[C@@]1(C)CCC[C@]2(C)c3cc(OC(C)=O)c(C(C)C)cc3C(=O)C[C@@H]12 [Compound 11]

SMILES	GI50 [µM]
COC(=O)[C@@]1(C)CCC[C@]2(C)c3cc(O)c(C(C)C)cc3CC[C@@H]12 [Compound 12]	4.2 ± 1.3

Tested on: not listed separately
Assay: Cytotoxicity assay on J774 macrophages
Details: mouse, Macrophages J774 CC50, 50% reduction of cell viability
Description: (§3) The compounds were additionally studied in a panel of mammalian cell lines to determine cytotoxicity.
(§4) The parasites, culture procedure and the activity of functionalized abietane analogs on Leishmania promastigotes were performed according to the method previously reported by us [28], while the intracellular amastigote assay was performed on L. amazonensis and L. infantum according to the fluorometric test [29]. The J774 cell culture and the cytotoxicity assay was carried out according to our previously described method [30].

SMILES	CC50 [µM]
COC(=O)[C@@]1(C)CCC[C@]2(C)c3cc(OC(C)=O)c(C(C)C)cc3CC[C@@H]12 [Compound 10]	30.2 ± 2
COC(=O)[C@@]1(C)CCC[C@]2(C)c3cc(OC(C)=O)c(C(C)C)cc3C(=O)C[C@@H]12 [Compound 11]	45.8 ± 5.6
COC(=O)[C@@]1(C)CCC[C@]2(C)c3cc(O)c(C(C)C)cc3CC[C@@H]12 [Compound 12]	65.4 ± 7

Tested on: L. infantum promastigotes
Assay: Antileishmanial in vitro promastigote assay
Details: Leishmania infantum, read-out: L. infantum IC50 ± SD
Description: as §3, §4

IC50 [µM]	SMILES
3.6 ± 0.6	COC(=O)[C@@]1(C)CCC[C@]2(C)c3cc(OC(C)=O)c(C(C)C)cc3CC[C@@H]12 [Compound 10]

Tested on: L. donovani promastigotes
Assay: Antileishmanial in vitro promastigote assay
Details: Leishmania donovani, read-out: L. donovani IC50 ± SD

IC50 [µM]	SMILES
3.9 ± 0.1	COC(=O)[C@@]1(C)CCC[C@]2(C)c3cc(OC(C)=O)c(C(C)C)cc3CC[C@@H]12 [Compound 10]

Tested on: L. amazonensis promastigotes
Assay: Antileishmanial in vitro promastigote assay
Details: Leishmania amazonensis, read-out: L. amazonensis IC50 ± SD
Description: as §3, §4

IC50 [µM]	SMILES
7.4 ± 0.6	COC(=O)[C@@]1(C)CCC[C@]2(C)c3cc(OC(C)=O)c(C(C)C)cc3CC[C@@H]12 [Compound 10]

Biological target: GABAA receptor subtype (α1β2γ2S) (Homo sapiens, UniProt P14867+P18507+P47870)
Sequence (P14867 28-456): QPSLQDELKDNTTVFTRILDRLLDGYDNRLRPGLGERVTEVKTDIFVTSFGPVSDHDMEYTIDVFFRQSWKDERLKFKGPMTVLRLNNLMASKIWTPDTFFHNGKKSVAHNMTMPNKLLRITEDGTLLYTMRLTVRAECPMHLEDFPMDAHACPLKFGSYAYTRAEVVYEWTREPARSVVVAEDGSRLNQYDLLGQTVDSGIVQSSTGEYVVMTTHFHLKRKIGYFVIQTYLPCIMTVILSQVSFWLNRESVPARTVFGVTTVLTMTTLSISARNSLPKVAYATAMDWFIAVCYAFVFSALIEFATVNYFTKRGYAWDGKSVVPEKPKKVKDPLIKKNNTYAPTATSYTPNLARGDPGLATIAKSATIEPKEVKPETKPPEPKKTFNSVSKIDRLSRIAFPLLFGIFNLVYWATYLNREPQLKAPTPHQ
Sequence (P47870 26-512): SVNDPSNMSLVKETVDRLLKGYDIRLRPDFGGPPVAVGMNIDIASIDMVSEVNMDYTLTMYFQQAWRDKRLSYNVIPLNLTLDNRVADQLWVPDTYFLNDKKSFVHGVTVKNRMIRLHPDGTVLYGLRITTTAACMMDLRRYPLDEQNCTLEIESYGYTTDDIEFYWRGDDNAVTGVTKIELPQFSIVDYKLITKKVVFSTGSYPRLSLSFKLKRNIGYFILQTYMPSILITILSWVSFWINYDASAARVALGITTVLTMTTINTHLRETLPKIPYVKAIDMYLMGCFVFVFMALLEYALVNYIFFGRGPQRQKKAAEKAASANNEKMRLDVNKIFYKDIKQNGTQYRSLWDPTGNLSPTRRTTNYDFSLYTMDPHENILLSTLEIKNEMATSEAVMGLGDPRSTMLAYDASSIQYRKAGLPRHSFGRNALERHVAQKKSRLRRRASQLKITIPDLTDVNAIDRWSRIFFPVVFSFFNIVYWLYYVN
Sequence (P18507 40-467 isoform P18507-1 limits assumed): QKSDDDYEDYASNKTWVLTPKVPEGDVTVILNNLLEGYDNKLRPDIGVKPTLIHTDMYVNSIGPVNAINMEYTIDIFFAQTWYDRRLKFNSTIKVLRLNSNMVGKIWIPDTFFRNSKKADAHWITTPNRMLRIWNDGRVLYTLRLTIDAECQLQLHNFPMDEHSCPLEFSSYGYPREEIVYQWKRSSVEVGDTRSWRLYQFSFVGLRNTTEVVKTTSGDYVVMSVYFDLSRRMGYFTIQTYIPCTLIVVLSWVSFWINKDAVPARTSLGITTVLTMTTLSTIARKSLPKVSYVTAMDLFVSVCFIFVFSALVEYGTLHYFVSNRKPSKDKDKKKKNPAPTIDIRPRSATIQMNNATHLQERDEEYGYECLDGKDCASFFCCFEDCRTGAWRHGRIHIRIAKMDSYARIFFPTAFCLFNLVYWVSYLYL
Assay: Two-microelectrode voltage-clamp in Xenopus laevis oocytes
Details: read-out: IGABA Potentiation of 10 µM (%)
Description: All molecules were tested at concentrations of 10, 100 μM and compared with dehydroabietic acid (DHA) (3) as a reference [16].

SMILES	activation at 10 µM [%]
COC(=O)[C@@]1(C)CCC[C@]2(C)c3cc(OC(C)=O)c(C(C)C)cc3C(=O)C[C@@H]12 [Compound 11]	1 ± 3
COC(=O)[C@@]1(C)CCC[C@]2(C)c3cc(O)c(C(C)C)cc3CC[C@@H]12 [Compound 12]	1 ± 3

Same assay, conditions: read-out: IGABA Potentiation of 100 µM (%)

SMILES	activation at 100 µM [%]
COC(=O)[C@@]1(C)CCC[C@]2(C)c3cc(OC(C)=O)c(C(C)C)cc3C(=O)C[C@@H]12 [Compound 11]	75 ± 4
COC(=O)[C@@]1(C)CCC[C@]2(C)c3cc(O)c(C(C)C)cc3CC[C@@H]12 [Compound 12]	65 ± 6
